The test system of test [1] is AGS cells. The test can be described thus: Cell viability, trypan blue exclusion, 24 h. The test is classed as cell-based. Conditions: mean ± SE, n=3, read-out: IC50, growth of human cancer cells. The method, then: (§1) Cell Culture and Chemicals. The COLO 205 and HT 29 cell lines were isolated from human colon adenocarcinoma (ATCC CCL-222 and HTB-38); human promyelocytic leukemia (HL-60) cells were obtained from American Type Culture Collection (Rockville, Md.). The human AGS gastric carcinoma cell lines (CCRC 60102) were obtained from the Food Industry Research and Development Institute (Hsinchu, Taiwan). Cell lines were grown at 37° C. in 5% CO2 dioxide atmosphere in RPMI for COLO 205, HT-29, and HL-60 cells and DMEM/F12 for AGS cells, all supplemented with 10% heat-inactivated fetal bovine serum (GIBCO BRL, Grand Island, N.Y.) (100 units/mL of penicillin, 100 μg/mL of streptomycin), and 2 mM L-glutamine (GIBCO BRL). Selected compounds were dissolved in dimethyl sulfoxide (DMSO). Propidium iodide was obtained from Sigma Chemical Co. (St. Louis, Mo.).
(§2) Determination of Cell Viability. Human cancer cells were treated either with DMSO (0.01%) or the selected compounds (5-100 μM). Cell viability was determined at 24 h based on trypan blue exclusion assay. The viability percentage was calculated based on the percentage of unstained cells. Suspensions of cells were diluted 1:1 with 0.5% trypan blue solution. Stained and unstained cells were counted in a hemocytometer.

Test [2] relates to COLO 205 cells. The test can be described thus: Cell viability, trypan blue exclusion, 24 h. The test is classed as cell-based. The note with it: COLO 205, 24 h, mean ± SE, n=3, read-out: IC50, growth of human cancer cells. The method, then: as §1, §2
Test [3] has as its system HL-60 cells. Briefly: Cell viability, trypan blue exclusion, 24 h. Format: cell-based. Conditions: HL-60, 24 h, mean ± SE, n=3, read-out: IC50, growth of human cancer cells. The protocol:
as §1, §2

Test [4] deals with HT-29 cells. Briefly: Cell viability, trypan blue exclusion, 24 h. The test is classed as cell-based. The note with it: HT-29, 24 h, mean ± SE, n=3, read-out: IC50, growth of human cancer cells. The protocol:
as §1, §2

The test system of test [5] is AGS cells. The test can be described thus: Apoptosis (sub-G1) by flow cytometry. The test is classed as cell-based, human. The note with it: 24 h, mean ± SE. The protocol: as §1
(§3) Flow Cytometry. Human cancer cells (2×10^5) were cultured in 60-mm Petri dishes and incubated for 24 h. The apoptotic cells (sub-G1) in the selected compounds and treated cells were measured by flow cytometry analysis. Then cells were harvested, washed with PBS, resuspended in 200 μL of PBS, and fixed in 800 μL of iced 100% ethanol at −20° C. After being left to stand overnight, the cell pellets were collected by centrifugation, resuspended in 1 mL of hypotonic buffer (0.5% Triton X-100 in PBS and 0.5 μg/mL RNase), and incubated at 37° C. for 30 min. Then 1 mL of propidium iodide solution (50 μg/mL) was added and the mixture was allowed to stand on ice for 30 min. Fluorescence emitted from the propidium iodide-DNA complex was quantitated after excitation of the fluorescent dye by FACScan cytometry (Becton Dickinson, San Jose, Calif.).
(§4) The compounds isolated from Inula were tested for their effects on the apoptotic ratio in human cancer cells.
On the technique in general: Flow cytometry measures light scatter and fluorescence of single cells or particles in a stream.

In test [6] the test system is COLO 205 cells. The test can be described thus: Apoptosis (sub-G1) by flow cytometry. The test is classed as cell-based, human. Conditions: 24 h, mean ± SE. The protocol:
as §1, §3, §4

Test [7] relates to HL-60 cells. Briefly: Apoptosis (sub-G1) by flow cytometry. The test is classed as cell-based, human. The note with it: 24 h, mean ± SE. The method, then: as §1, §3, §4
For test [8], the system named is HT-29 cells. Briefly: Apoptosis (sub-G1) by flow cytometry. The test is classed as cell-based, human. The note with it: 24 h, mean ± SE. The method, then:
as §1, §3, §4

As to `CC(=O)OCCC[C@H](C)C1=C[C@@H]2[C@H](C)C(=O)O[C@@H]2C[C@@]1(C)O` [Compound 2, neobritannilactone A], the half-maximal inhibitory concentration (IC50) (usually the concentration at which inhibition is half-maximal) was greater than 100 µM in test [1], 97.9 ± 1.16 µM in test [2], 85.8 ± 4.97 µM in test [3] and greater than 100 µM in test [4]. Moreover, the apoptotic ratio in test [5] (5 μM) was 9.23 ± 0.22%; in test [5] (10 μM) it was 9.83 ± 2.27%; in test [5] (25 μM), 10.57 ± 2.11%; in test [5] (50 μM), 9.41 ± 2.83%; in test [5] (100 μM), 9.81 ± 2.30%; in test [6] (COLO 205, 5 μM), 4.08 ± 0.21%. The apoptotic ratio in test [6] (COLO 205, 10 μM) is listed as 6.51 ± 2.28%; in test [6] (COLO 205, 25 μM), 4.28 ± .93%; in test [6] (COLO 205, 50 μM), 5.44 ± 0.47%; in test [6] (COLO 205, 100 μM), 25.50 ± 3.46%; in test [7] (HL-60, 5 μM), 6.68 ± 1.51%; in test [7] (HL-60, 10 μM), 6.31 ± 0.98%. The apoptotic ratio in test [7] (HL-60, 25 μM) is on record as 6.19 ± 0.01%; in test [7] (HL-60, 50 μM), 6.63 ± 2.21%; in test [7] (HL-60, 100 μM), 16.31 ± 1.63%; in test [8] (HT-29, 5 μM), 3.94 ± 1.05%; in test [8] (HT-29, 10 μM), 4.24 ± 0.24%; in test [8] (HT-29, 25 μM), 5.17 ± 1.70%. Besides, the apoptotic ratio in test [8] (HT-29, 50 μM) is recorded as 4.09 ± 0.77%; in test [8] (HT-29, 100 μM) it was 7.73 ± 3.22%.
On to `C=C1C(=O)OC2CC(C)=C(C(C)CCCOC(C)=O)C(OC(C)=O)C12` (stereo not drawn) [Compound 7, 1,6-O,O-diacetylbritannilactone], for which the IC50 came out at 66.4 ± 6.29 µM in test [1], 56.7 ± 3.66 µM in test [2], 35.3 ± 0.44 µM in test [3] and 76.6 ± 5.5 µM in test [4]. The apoptotic ratio in test [5] (5 μM) is listed as 7.49 ± .88%; in test [5] (10 μM), 5.79 ± 0.64%; in test [5] (25 μM), 11.29 ± 2.16%; in test [5] (50 μM), 10.79 ± 2.79%; in test [5] (100 μM), 8.12 ± .26%; in test [6] (COLO 205, 5 μM), 6.94 ± .33%. Moreover, the apoptotic ratio is 8.69 ± 1.65% in test [6] (COLO 205, 10 μM); 26.95 ± 0.30% in test [6] (COLO 205, 25 μM); 15.44 ± .08% in test [6] (COLO 205, 50 μM); 17.82 ± 2.26% in test [6] (COLO 205, 100 μM); 6.14 ± .20% in test [7] (HL-60, 5 μM); 8.67 ± 2.06% in test [7] (HL-60, 10 μM). In addition, the apoptotic ratio was 21.13 ± 0.37% in test [7] (HL-60, 25 μM); 27.02 ± 2.69% in test [7] (HL-60, 50 μM); 22.24 ± 1.06% in test [7] (HL-60, 100 μM); 11.19 ± 3.98% in test [8] (HT-29, 5 μM); 11.15 ± 2.84% in test [8] (HT-29, 10 μM); 11.50 ± .92% in test [8] (HT-29, 25 μM). For the same molecule, the apoptotic ratio is 13.08 ± 0.63% in test [8] (HT-29, 50 μM) and 20.88 ± .09% in test [8] (HT-29, 100 μM).
